# Experiments:
# iRS cells = assay: Conversion of iRS cells to DsRed-negative (pluripotent) cells in high-density culture; assay type: cell-based, human; details: 0.5 mM added to MEF-conditioned medium, high-density culture (1×10^6 cells, 3 cm dish), day 6 after plating
# Procedure: (§1) CM is conditioned medium.
# The iRS cells were plated at a high density (1×10^6 cells) on a 3 cm dish coated with Matrigel, and culture was continued in a MEF-conditioned medium. From day 3, DsRed-negative cells were occasionally found, and DsRed-negative cell clump could be confirmed on day 6. On day 10, ES cell-like colony could be confirmed (FIG. 3A). The expression levels of exogenous OCT4 and SOX2 at that time were confirmed by quantitative PCR. Expression of exogenous gene disappeared on day 6 of high-density culture, and re-expression was void thereafter (FIG. 3B). Furthermore, the expression levels of the endogenous OCT4, TDGF1 and ECAD were confirmed by quantitative PCR. As a result, expression of these pluripotent marker genes was confirmed (FIG. 3C). Similarly, the mRNA expression levels of other pluripotent marker genes were confirmed on a heat map. As a result, mostly similar gene expression profiles were confirmed on day 6 and day 10 (FIG. 3D). Moreover, SSEA4 and ECAD, which are surface antigen markers showing pluripotency, were tested by an immunostaining method. As a result, both surface antigens could be recognized from day 6 (FIG. 3E). […]
# iRS cells were plated at a high density (1×10^6 cells) on a 3 cm dish coated with Matrigel, 0.5 mM VPA was added to the MEF-conditioned medium and culture was continued. […] Phosphorylation of mTOR then was measured. […]
# [1] = system: phosphorylated mTOR (p-mTOR); assay: Phosphorylation of mTOR in iRS cells; assay type: cell-based, human; details: addition to conditioned medium, vs DMSO control
# Procedure: as §1
# iRS cells were plated at a high density (1×10^6 cells) on a 3 cm dish coated with Matrigel, 0.5 mM VPA was added to the MEF-conditioned medium and culture was continued. […] Phosphorylation of mTOR then was measured.
compound,measurement,setting,value
"CCCC(CCC)C(=O)[O-].[Na+] [VPA, sodium valproate]",conversion rate to DsRed-negative cells,iRS cells,strikingly high
same,amount of phosphorylated mTOR (p-mTOR),[1],increased

# — patent US20150337267A1, “REPROGRAMMED STEM CELL” (KYOTO UNIVERSITY, priority 2013, published 2015)
